For data set [1] the following is noted: animal studies, ingestion; cited from earlier work.
Data set [2] is described as follows: Reduction of oxidized NDGA in methanolic solution by reducing agents, followed by chromatography. The note with it: reducing agent at 100 mg/ml in methanolic solution of oxidized NDGA.

SMILES strings stand for the structures.

Turning to `CC(Cc1ccc(O)c(O)c1)C(C)Cc1ccc(O)c(O)c1` (stereo not drawn) [NDGA, nordihydroguaiaretic acid], in data set [1], the kidney toxicity entry was “evidence of kidney toxicity”.

Consider `O=C1O[C@H]([C@@H](O)CO)C(O)=C1O` [ascorbic acid], for which the “time to reduce oxidized NDGA” value in data set [2] is recorded as “approximately 1 minute”. Take `O=S([O-])S(=O)[O-].[Na+].[Na+]` [sodium hydrosulfite]: in data set [2], the “NDGA quinone remaining by chromatography after reduction” value is on record as “still detectable”.

Values taken from US20050123560A1, “High purity and water dispersible extract and formulations of larrea tridentata leaf resin, and methods of making and using the same” (priority 2003, published 2005).
